Earlier results as cited in US20080275118A1, “HEALTH AND COSMETIC COMPOSITION AND REGIME FOR STIMULATING HAIR GROWTH AND THICKENING ON THE HEAD, INCLUDING THE SCALP, EYELASHES, AND EYEBROWS, AND WHICH DISCOURAGES HAIR LOSS” (priority 2008, published 2008).

System: scalp hair
Details: in man, tests carried out on the scalp; Roenigk 1988

C=CC(O)(C/C=C/[C@H]1[C@H](O)CC(=O)[C@@H]1C/C=C\CCCC(=O)OC)CCCC (stereo partly shown) [viprostol]
hair density: increasing hair density
